Reference: PubChem BioAssay AID1259407 (Chemical Carcinogenesis Research Information System (CCRIS), 2018)
The source made the active and inactive calls. No rule for the calls is given here.

System: CCRIS mutagenicity, Ames/micronucleus/aberration tests
Experiment: CCRIS mutagenicity studies
[1] = Test System: AMES SALMONELLA TYPHIMURIUM, Strain/Indicator: TA98, Metabolic Activation: NONE, Method: STANDARD PLATE
[2] = Test System: AMES SALMONELLA TYPHIMURIUM, Strain/Indicator: TA100, Metabolic Activation: NONE, Method: STANDARD PLATE
[3] = Test System: AMES SALMONELLA TYPHIMURIUM, Strain/Indicator: TA98, Metabolic Activation: NONE, Method: PREINCUBATION
[4] = Test System: AMES SALMONELLA TYPHIMURIUM, Strain/Indicator: TA100, Metabolic Activation: NONE, Method: PREINCUBATION

O=C(c1ccc([N+](=O)[O-])cc1)n1ncc(Cl)c(Cl)c1=O
mutagenic call [1]: inactive; negative
mutagenic call (Test System: AMES SALMONELLA TYPHIMURIUM, Strain/Indicator: TA98, Metabolic Activation: RAT, LIVER, S-9, AROCLOR 1254, Method: STANDARD PLATE): inactive; negative
mutagenic call [2]: active; positive
mutagenic call (Test System: AMES SALMONELLA TYPHIMURIUM, Strain/Indicator: TA100, Metabolic Activation: RAT, LIVER, S-9, AROCLOR 1254, Method: STANDARD PLATE): active; positive
mutagenic call (Test System: AMES SALMONELLA TYPHIMURIUM, Strain/Indicator: TA1535, Metabolic Activation: NONE, Method: STANDARD PLATE): active; positive
mutagenic call (Test System: AMES SALMONELLA TYPHIMURIUM, Strain/Indicator: TA1535, Metabolic Activation: RAT, LIVER, S-9, AROCLOR 1254, Method: STANDARD PLATE): active; positive
mutagenic call (Test System: AMES SALMONELLA TYPHIMURIUM, Strain/Indicator: TA1537, Metabolic Activation: NONE, Method: STANDARD PLATE): inactive; negative
mutagenic call (Test System: AMES SALMONELLA TYPHIMURIUM, Strain/Indicator: TA1537, Metabolic Activation: RAT, LIVER, S-9, AROCLOR 1254, Method: STANDARD PLATE): inactive; negative

O=C(Cl)c1ccccc1Cl
mutagenic call [3]: inactive; negative
mutagenic call (Test System: AMES SALMONELLA TYPHIMURIUM, Strain/Indicator: TA98, Metabolic Activation: RAT LIVER S-9, PCB, Method: PREINCUBATION): active; positive
mutagenic call [4]: active; positive
mutagenic call (Test System: AMES SALMONELLA TYPHIMURIUM, Strain/Indicator: TA100, Metabolic Activation: RAT LIVER S-9, PCB, Method: PREINCUBATION): active; positive
mutagenic call (Test System: AMES SALMONELLA TYPHIMURIUM, Strain/Indicator: TA104, Metabolic Activation: NONE, Method: PREINCUBATION): active; positive
mutagenic call (Test System: AMES SALMONELLA TYPHIMURIUM, Strain/Indicator: TA104, Metabolic Activation: RAT LIVER S-9 PCB, Method: PREINCUBATION): active; positive
mutagenic call (Test System: E.COLI, Strain/Indicator: WP2 UVRA, Metabolic Activation: NONE, Method: PREINCUBATION): inactive; negative
mutagenic call (Test System: E.COLI, Strain/Indicator: WP2 UVRA, Metabolic Activation: RAT LIVER S-9, PCB, Method: PREINCUBATION): active; positive

COc1ccc2cc([C@H](C)C(=O)O)ccc2c1
mutagenic call (Test System: AMES SALMONELLA TYPHIMURIUM, Strain/Indicator: TA97A, Metabolic Activation: NONE, Method: STANDARD PLATE): inactive; negative
mutagenic call (Test System: AMES SALMONELLA TYPHIMURIUM, Strain/Indicator: TA97A, Metabolic Activation: RAT, LIVER, S-9, PHENOBARBITAL, Method: STANDARD PLATE): inactive; negative
mutagenic call (Test System: AMES SALMONELLA TYPHIMURIUM, Strain/Indicator: TA98, Metabolic Activation: GUINEA PIG, LIVER, S-9, PCB, Method: PREINCUBATION): inactive; negative
mutagenic call (Test System: AMES SALMONELLA TYPHIMURIUM, Strain/Indicator: TA98, Metabolic Activation: HAMSTER, LIVER, S-9, PCB, Method: PREINCUBATION): inactive; negative
mutagenic call (Test System: AMES SALMONELLA TYPHIMURIUM, Strain/Indicator: TA98, Metabolic Activation: MOUSE, LIVER, S-9, PCB, Method: PREINCUBATION): inactive; negative
mutagenic call [3]: inactive; negative
mutagenic call (Test System: AMES SALMONELLA TYPHIMURIUM, Strain/Indicator: TA98, Metabolic Activation: RAT, LIVER, S-9, PCB, Method: PREINCUBATION): inactive; negative
mutagenic call (Test System: AMES SALMONELLA TYPHIMURIUM, Strain/Indicator: TA98, Metabolic Activation: RAT, LIVER, S-9, PCB, Method: STANDARD PLATE): inactive; negative
mutagenic call (Test System: AMES SALMONELLA TYPHIMURIUM, Strain/Indicator: TA100, Metabolic Activation: GUINEA PIG, LIVER, S-9, PCB, Method: PREINCUBATION): inactive; negative
mutagenic call (Test System: AMES SALMONELLA TYPHIMURIUM, Strain/Indicator: TA100, Metabolic Activation: HAMSTER, LIVER, S-9, PCB, Method: PREINCUBATION): inactive; negative
mutagenic call (Test System: AMES SALMONELLA TYPHIMURIUM, Strain/Indicator: TA100, Metabolic Activation: MOUSE, LIVER, S-9, PCB, Method: PREINCUBATION): inactive; negative
mutagenic call [4]: inactive; negative
mutagenic call [2]: inactive; negative
mutagenic call (Test System: AMES SALMONELLA TYPHIMURIUM, Strain/Indicator: TA100, Metabolic Activation: RAT, LIVER, S-9, PCB, Method: PREINCUBATION): inactive; negative
mutagenic call (Test System: AMES SALMONELLA TYPHIMURIUM, Strain/Indicator: TA100, Metabolic Activation: RAT, LIVER, S-9, PCB, Method: STANDARD PLATE): inactive; negative
mutagenic call (Test System: AMES SALMONELLA TYPHIMURIUM, Strain/Indicator: TA100, Metabolic Activation: RAT, LIVER, S-9, PHENOBARBITAL, Method: STANDARD PLATE): inactive; negative
mutagenic call (Test System: AMES SALMONELLA TYPHIMURIUM, Strain/Indicator: TA102, Metabolic Activation: NONE, Method: STANDARD PLATE): inactive; negative
mutagenic call (Test System: AMES SALMONELLA TYPHIMURIUM, Strain/Indicator: TA102, Metabolic Activation: RAT, LIVER, S-9, PHENOBARBITAL, Method: STANDARD PLATE): inactive; negative
mutagenic call (Test System: AMES SALMONELLA TYPHIMURIUM, Strain/Indicator: TA1537, Metabolic Activation: RAT, LIVER, S-9, PCB, Method: STANDARD PLATE): inactive; negative
mutagenic call (Test System: AMES SALMONELLA TYPHIMURIUM, Strain/Indicator: TA1538, Metabolic Activation: RAT, LIVER, S-9, PCB, Method: STANDARD PLATE): inactive; negative
mutagenic call (Test System: E. COLI, Strain/Indicator: WP2 UVRA, Metabolic Activation: RAT, LIVER, S-9, PCB, Method: STANDARD PLATE): inactive; negative

O=C(Nc1ccccc1)c1csc([N+](=O)[O-])c1
mutagenic call (Test System: AMES SALMONELLA TYPHIMURIUM, Strain/Indicator: TA98(1,8-DNP6), Metabolic Activation: NONE, Method: STANDARD PLATE): active; positive
mutagenic call (Test System: AMES SALMONELLA TYPHIMURIUM, Strain/Indicator: TA98(NR), Metabolic Activation: NONE, Method: STANDARD PLATE): inactive; negative
mutagenic call [1]: active; positive
mutagenic call [2]: active; positive
mutagenic call (Test System: AMES SALMONELLA TYPHIMURIUM, Strain/Indicator: YG1021, Metabolic Activation: NONE, Method: STANDARD PLATE): active; positive
mutagenic call (Test System: AMES SALMONELLA TYPHIMURIUM, Strain/Indicator: YG1024, Metabolic Activation: NONE, Method: STANDARD PLATE): active; positive

Cc1cccc2ccc3c4ccccc4ccc3c12
mutagenic call (Test System: AMES SALMONELLA TYPHIMURIUM, Strain/Indicator: TA100, Metabolic Activation: RAT, LIVER, MICROSOMES, 4-METHYLCHRYSENE, Method: STANDARD PLATE): inactive; negative
mutagenic call (Test System: AMES SALMONELLA TYPHIMURIUM, Strain/Indicator: TA100, Metabolic Activation: RAT, LIVER, MICROSOMES, AROCLOR 1254, Method: STANDARD PLATE): active; positive
mutagenic call (Test System: AMES SALMONELLA TYPHIMURIUM, Strain/Indicator: TA100, Metabolic Activation: RAT, LIVER, MICROSOMES, Method: STANDARD PLATE): inactive; negative
